Experiments:
velvetleaf = assay: Test B preemergence/postemergence greenhouse plant response rating 0 to 10; assay type: in vivo, Abutilon theophrasti; conditions: 0 to 10 scale
Outline: (§1)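 Planted seeds are treated preemergence with compound dissolved in a non-phytotoxic solvent, while postemergence applications go onto plants of two to eighteen cm. Plants stay in the greenhouse twelve to sixteen days and are then rated visually relative to controls.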

rape = assay: as above; assay type: in vivo, Brassica napus; conditions: 0 to 10 scale
Outline: as §1

barley [1] = assay: as above; assay type: in vivo, Hordeum vulgare; conditions: 0 to 10 scale
Outline: as §1

lambsquarters [2] = assay: as above; assay type: in vivo, Chenopodium album; conditions: 0 to 10 scale
Outline: as §1

sugar beet = assay: Test C preemergence/postemergence greenhouse plant response rating 0 to 100; assay type: in vivo, Beta vulgaris; conditions: POSTEMERGENCE; for Plant response rating, Sugar beet: 0 to 100 scale
Outline: (§2)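 Compounds in non-phytotoxic solvent applied preemergence to sandy loam one day after planting, postemergence at the 1–4 leaf stage, or to ~2.5 cm floodwater over silt loam.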

cheatgrass = assay: Test B preemergence/postemergence greenhouse plant response rating 0 to 10; assay type: in vivo, Bromus secalinus; conditions: 0 to 10 scale
Outline: as §1

soybean [3] = assay: Test C preemergence/postemergence greenhouse plant response rating 0 to 100; assay type: in vivo, Glycine max; conditions: POSTEMERGENCE; for Plant response rating, Soybean: 0 to 100 scale
Outline: as §2

soybean [4] = assay: Test B preemergence/postemergence greenhouse plant response rating 0 to 10; assay type: in vivo, Glycine max; conditions: 0 to 10 scale
Outline: as §1

chickweed = assay: Test C preemergence/postemergence greenhouse plant response rating 0 to 100; assay type: in vivo, Stellaria media; conditions: POSTEMERGENCE; for Plant response rating, Chickweed: 0 to 100 scale
Outline: as §2

crabgrass = assay: Test B preemergence/postemergence greenhouse plant response rating 0 to 10; assay type: in vivo, Digitaria spp.; conditions: 0 to 10 scale
Outline: as §1

purple nutsedge = assay: as above; assay type: in vivo, Cyperus rotundus; conditions: 0 to 10 scale
Outline: as §1

ryegrass = assay: Test C preemergence/postemergence greenhouse plant response rating 0 to 100; assay type: in vivo, Lolium multiflorum; conditions: POSTEMERGENCE; for Plant response rating Ryegrass: 0 to 100 scale
Outline: as §2

pigweed = assay: as above; assay type: in vivo, Amaranthusretroflexus; conditions: POSTEMERGENCE; for Plant response rating Pigweed: 0 to 100 scale
Outline: as §2

blackgrass = assay: Test B preemergence/postemergence greenhouse plant response rating 0 to 10; assay type: in vivo, Alopecurus myosuroides; conditions: 0 to 10 scale
Outline: as §1

barley [5] = assay: Test C preemergence/postemergence greenhouse plant response rating 0 to 100; assay type: in vivo, Hordeum vulgare; conditions: POSTEMERGENCE; for Plant response rating Barley Igri: 0 to 100 scale
Outline: as §2

giant foxtail = assay: Test B preemergence/postemergence greenhouse plant response rating 0 to 10; assay type: in vivo, Setaria faberii; conditions: 0 to 10 scale
Outline: as §1

lambsquarters [6] = assay: Test C preemergence/postemergence greenhouse plant response rating 0 to 100; assay type: in vivo, Chenopodium album; conditions: POSTEMERGENCE; for Plant response rating Lambsquarters: 0 to 100 scale
Outline: as §2

wild buckwheat = assay: as above; assay type: in vivo, Polygonum convolvulus; conditions: POSTEMERGENCE; for Plant response rating, Wild buckwheat: 0 to 100 scale
Outline: as §2

## COC(=O)c1cc(-c2nn3c(c2Cl)CCCC3)c(F)cc1Cl [Compound 43]
velvetleaf; POSTEMERGENCE, Rate 50 g/ha
  Plant response rating, Velvetleaf: 10
velvetleaf; PREEMERGENCE, Rate 50 g/ha
  Plant response rating, Velvetleaf: 5
velvetleaf; Rate 200 g/ha, POSTEMERGENCE
  Plant response rating, Velvetleaf: 10
velvetleaf; Rate 200 g/ha, PREEMERGENCE
  Plant response rating, Velvetleaf: 10
rape; POSTEMERGENCE, Rate 50 g/ha
  Plant response rating, Rape: 9
rape; PREEMERGENCE, Rate 50 g/ha
  Plant response rating, Rape: 0
rape; Rate 200 g/ha, POSTEMERGENCE
  Plant response rating, Rape: 10
rape; Rate 200 g/ha, PREEMERGENCE
  Plant response rating, Rape: 9
Barley [1]; POSTEMERGENCE, Rate 50 g/ha
  Plant response rating, Barley: 3
Barley [1]; POSTEMERGENCE, Rate 200 g/ha
  Plant response rating, Barley: 3
Barley [1]; PREEMERGENCE, Rate 50 g/ha
  Plant response rating, Barley: 0
Barley [1]; Rate 200 g/ha, PREEMERGENCE
  Plant response rating, Barley: 0
Lambsquarters [2]; POSTEMERGENCE, Rate 50 g/ha
  Plant response rating, Lambsquarter: 8
Lambsquarters [2]; PREEMERGENCE, Rate 50 g/ha
  Plant response rating, Lambsquarter: 9
Lambsquarters [2]; Rate 200 g/ha, POSTEMERGENCE
  Plant response rating, Lambsquarter: 10
Lambsquarters [2]; Rate 200 g/ha, PREEMERGENCE
  Plant response rating, Lambsquarter: 10
Sugar beet; 62 g/ha
  Plant response rating, Sugar beet: 60
Sugar beet; 250 g/ha
  Plant response rating, Sugar beet: 80
Sugar beet; Rate 4 g/ha
  Plant response rating (0 to 100), Sugar beet: 30
Sugar beet; Rate 16 g/ha
  Plant response rating (0 to 100), Sugar beet: 40
cheatgrass; POSTEMERGENCE, Rate 50 g/ha
  Plant response rating, Cheatgrass: 6
cheatgrass; POSTEMERGENCE, Rate 200 g/ha
  Plant response rating, Cheatgrass: 9
cheatgrass; PREEMERGENCE, Rate 50 g/ha
  Plant response rating, Cheatgrass: 2
cheatgrass; Rate 200 g/ha, PREEMERGENCE
  Plant response rating, Cheatgrass: 3
Soybean [3]; 62 g/ha
  Plant response rating, Soybean: 70
Soybean [3]; 250 g/ha
  Plant response rating, Soybean: 90
Soybean [3]; Rate 4 g/ha
  Plant response rating (0 to 100), Soybean: 40
Soybean [3]; Rate 16 g/ha
  Plant response rating (0 to 100), Soybean: 50
Soybean [4]; POSTEMERGENCE, Rate 50 g/ha
  Plant response rating, Soybean: 8
Soybean [4]; PREEMERGENCE, Rate 50 g/ha
  Plant response rating, Soybean: 4
Soybean [4]; Rate 200 g/ha, POSTEMERGENCE
  Plant response rating, Soybean: 9
Soybean [4]; Rate 200 g/ha, PREEMERGENCE
  Plant response rating, Soybean: 3
chickweed; 62 g/ha
  Plant response rating, Chickweed: 90
chickweed; 250 g/ha
  Plant response rating, Chickweed: 100
chickweed; Rate 4 g/ha
  Plant response rating (0 to 100), Chickweed: 60
chickweed; Rate 16 g/ha
  Plant response rating (0 to 100), Chickweed: 80
crabgrass; POSTEMERGENCE, Rate 50 g/ha
  Plant response rating, Crabgrass: 4
crabgrass; PREEMERGENCE, Rate 50 g/ha
  Plant response rating, Crabgrass: 0
crabgrass; Rate 200 g/ha, PREEMERGENCE
  Plant response rating, Crabgrass: 0
Purple nutsedge; POSTEMERGENCE, Rate 50 g/ha
  Plant response rating, Nutsedge: 3
Purple nutsedge; PREEMERGENCE, Rate 50 g/ha
  Plant response rating, Nutsedge: 0
Purple nutsedge; Rate 200 g/ha, POSTEMERGENCE
  Plant response rating, Nutsedge: 3
Purple nutsedge; Rate 200 g/ha, PREEMERGENCE
  Plant response rating, Nutsedge: 0
ryegrass; 62 g/ha
  Plant response rating Ryegrass: 50
ryegrass; 250 g/ha
  Plant response rating Ryegrass: 85
ryegrass; Rate 4 g/ha
  Plant response rating (0 to 100), Ryegrass: 30
ryegrass; Rate 16 g/ha
  Plant response rating (0 to 100), Ryegrass: 40
pigweed; 62 g/ha
  Plant response rating Pigweed: 100
pigweed; 250 g/ha
  Plant response rating Pigweed: 100
pigweed; Rate 4 g/ha
  Plant response rating (0 to 100), Pigweed: 90
pigweed; Rate 16 g/ha
  Plant response rating (0 to 100), Pigweed: 100
blackgrass; POSTEMERGENCE, Rate 50 g/ha
  Plant response rating, Blackgrass: 7
blackgrass; POSTEMERGENCE, Rate 200 g/ha
  Plant response rating, Blackgrass: 8
blackgrass; PREEMERGENCE, Rate 50 g/ha
  Plant response rating, Blackgrass: 2
blackgrass; Rate 200 g/ha, PREEMERGENCE
  Plant response rating, Blackgrass: 5
Barley [5]; 62 g/ha
  Plant response rating Barley Igri: 50
Barley [5]; 250 g/ha
  Plant response rating Barley Igri: 60
Barley [5]; Rate 4 g/ha
  Plant response rating (0 to 100), Barley Igri: 30
Barley [5]; Rate 16 g/ha
  Plant response rating (0 to 100), Barley Igri: 40
Giant foxtail; POSTEMERGENCE, Rate 50 g/ha
  Plant response rating, Giant foxtail: 5
Giant foxtail; PREEMERGENCE, Rate 50 g/ha
  Plant response rating, Giant foxtail: 0
Giant foxtail; Rate 200 g/ha, POSTEMERGENCE
  Plant response rating, Giant foxtail: 6
Giant foxtail; Rate 200 g/ha, PREEMERGENCE
  Plant response rating, Giant foxtail: 0
Lambsquarters [6]; 62 g/ha
  Plant response rating Lambsquarters: 100
Lambsquarters [6]; 250 g/ha
  Plant response rating Lambsquarters: 100
Lambsquarters [6]; Rate 4 g/ha
  Plant response rating (0 to 100), Lambsquarters: 90
Lambsquarters [6]; Rate 16 g/ha
  Plant response rating (0 to 100), Lambsquarters: 100
Wild buckwheat; 62 g/ha
  Plant response rating, Wild buckwheat: 100
Wild buckwheat; 250 g/ha
  Plant response rating, Wild buckwheat: 100
Wild buckwheat; Rate 4 g/ha
  Plant response rating (0 to 100), Wild buckwheat: 60
Wild buckwheat; Rate 16 g/ha
  Plant response rating (0 to 100), Wild buckwheat: 100
